Reference: ChEMBL document CHEMBL4346691, “GABA allosteric modulators: An overview of recent developments in non-benzodiazepine modulators” (Eur J Med Chem, 2019)

Assays:
[1] = molecular target: T1, GABA-A receptor; alpha-1/beta-2/gamma-2 (Homo sapiens) (UniProt P14867+P47870+P18507); experiment: Positive allosteric modulation of human GABA-A alpha1beta2gamma2S receptor expressed in Xenopus laevis oocytes assessed as increase in GABA-induced chloride channel current at 100 uM by two-electrode voltage clamp method relative to control; format: cell-based
[2] = Displacement of [3H]-Flumazenil from GABAA/BZD receptor in rat cortical membranes; format: cell membranes
Homo sapiens [3] = species: Homo sapiens; experiment: Positive allosteric modulation of human GABAA alpha4beta3gamma2 receptor expressed in mouse L(tk-) cells assessed as GABA-induced membrane potential at 10 uM incubated for 2.5 min by FLIPR assay relative to control; format: cell-based
[4] = molecular target: GABA-A receptor; alpha-1/beta-3/gamma-2 (Homo sapiens) (UniProt P14867+P18507+P28472); experiment: Positive allosteric modulation of human GABA-Aalpha1beta3gamma2 receptor expressed in mouse L(tk-) cells assessed as GABA-induced membrane potential at 10 uM incubated for 2.5 min by FLIPR assay relative to control; format: cell-based
Homo sapiens [5] = species: Homo sapiens; experiment: Positive allosteric modulation of human GABA-A alpha4beta3delta receptor expressed in mouse L(tk-) cells assessed as GABA-induced membrane potential at 10 uM incubated for 2.5 min by FLIPR assay relative to control; format: cell-based
[6] = molecular target: T2, GABA-A receptor; alpha-5/beta-3/gamma-2 (Homo sapiens) (UniProt P18507+P28472+P31644); experiment: Inverse agonist activity at recombinant human GABA-A alpha5beta3gamma2 receptor expressed in Xenopus laevis oocytes relative to control; format: cell-based
[7] = Binding affinity to recombinant human GABA-A alpha2beta3gamma2 receptor expressed in L(tk) cells; format: cell-based
[8] = molecular target: T1, GABA-A receptor; alpha-1/beta-2/gamma-2 (Homo sapiens); experiment: Positive allosteric modulation of recombinant human GABAA alpha1beta2gamma2s receptor expressed in Xenopus laevis oocytes assessed as GABA-stimulated current amplitude at 300 uM measured for 2 min by electrophysiological method relative to control; format: cell-based
[9] = molecular target: T2, GABA-A receptor; alpha-5/beta-3/gamma-2 (Homo sapiens); experiment: Inverse agonist activity at recombinant human GABA-A alpha5beta3gamma2 receptor expressed in mouse L(tk-) cells by whole-cell patch-Clamp method; format: cell-based
[10] = molecular target: T3, GABA-A receptor; alpha-5/beta-3/gamma-2 (Homo sapiens, UniProt P18507+P28472+P31644); experiment: Inverse agonist activity at recombinant human GABA-A alpha5beta3gamma2 receptor expressed in mouse L(tk-) cells by radioligand binding assay; format: cell-based
T3 sequence (P18507 whole entry): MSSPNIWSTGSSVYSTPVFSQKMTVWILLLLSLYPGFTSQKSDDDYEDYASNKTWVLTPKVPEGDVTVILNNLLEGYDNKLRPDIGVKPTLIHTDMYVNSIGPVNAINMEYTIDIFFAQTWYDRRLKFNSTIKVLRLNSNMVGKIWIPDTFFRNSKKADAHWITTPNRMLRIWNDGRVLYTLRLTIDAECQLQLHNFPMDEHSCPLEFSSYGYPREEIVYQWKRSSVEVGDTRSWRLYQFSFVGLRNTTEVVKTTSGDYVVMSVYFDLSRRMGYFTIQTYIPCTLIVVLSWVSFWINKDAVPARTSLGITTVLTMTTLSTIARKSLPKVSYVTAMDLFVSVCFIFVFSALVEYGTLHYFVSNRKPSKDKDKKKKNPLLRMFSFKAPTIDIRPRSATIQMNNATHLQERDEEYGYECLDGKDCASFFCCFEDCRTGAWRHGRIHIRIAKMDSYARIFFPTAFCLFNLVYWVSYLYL
T3 sequence (P28472 whole entry): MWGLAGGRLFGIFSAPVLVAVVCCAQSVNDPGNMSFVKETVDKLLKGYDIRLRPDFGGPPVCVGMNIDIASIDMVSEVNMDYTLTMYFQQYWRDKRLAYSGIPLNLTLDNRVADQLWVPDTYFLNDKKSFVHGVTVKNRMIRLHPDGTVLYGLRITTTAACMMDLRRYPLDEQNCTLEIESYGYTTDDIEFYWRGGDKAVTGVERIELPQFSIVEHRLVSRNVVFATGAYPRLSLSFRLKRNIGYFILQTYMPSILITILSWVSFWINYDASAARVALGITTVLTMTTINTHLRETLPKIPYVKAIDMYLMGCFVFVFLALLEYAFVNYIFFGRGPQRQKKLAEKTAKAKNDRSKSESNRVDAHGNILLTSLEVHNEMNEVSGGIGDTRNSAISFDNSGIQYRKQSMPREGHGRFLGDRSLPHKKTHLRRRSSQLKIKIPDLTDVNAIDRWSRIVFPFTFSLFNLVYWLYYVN
T3 sequence (P31644 whole entry): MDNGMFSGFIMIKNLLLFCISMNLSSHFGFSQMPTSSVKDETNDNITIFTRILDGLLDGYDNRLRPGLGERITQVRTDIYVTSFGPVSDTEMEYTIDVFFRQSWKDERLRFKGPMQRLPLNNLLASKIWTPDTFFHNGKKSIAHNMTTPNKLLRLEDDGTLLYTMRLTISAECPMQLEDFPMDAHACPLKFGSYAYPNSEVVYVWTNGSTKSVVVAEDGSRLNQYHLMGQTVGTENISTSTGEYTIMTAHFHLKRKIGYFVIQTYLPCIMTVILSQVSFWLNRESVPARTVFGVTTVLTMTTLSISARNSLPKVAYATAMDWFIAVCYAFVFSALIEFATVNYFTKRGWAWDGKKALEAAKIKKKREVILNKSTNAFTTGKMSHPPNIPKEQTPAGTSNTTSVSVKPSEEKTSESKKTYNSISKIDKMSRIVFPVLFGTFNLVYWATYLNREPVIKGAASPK

Homo sapiens [11] = species: Homo sapiens; experiment: Positive allosteric modulation of human GABA-A alpha4beta3delta receptor expressed in mouse L(tk-) cells assessed as GABA-induced membrane potential at 1 uM incubated for 2.5 min by FLIPR assay relative to control; format: cell-based
[12] = Displacement of [3H]-Flumazenil from GABAA/BZD receptor in rat cortical membranes incubated for 40 mins by radioligand binding assay; format: cell membranes
[13] = Displacement of [3H]-Flumazenil from GABAA/BZD receptor in Sprague-Dawley rat cerebral cortex incubated for 40 mins by liquid scintillation counting method
[14] = Oral bioavailability in rat at 3 mg/kg; format: ADME, organism-based; conditions: in vivo
[15] = molecular target: T4, GABA-A receptor; alpha-1/beta-2/gamma-2 (Homo sapiens, UniProt P14867+P18507+P47870); experiment: Positive allosteric modulation of human GABA-A alpha1beta2gamma2S receptor expressed in Xenopus laevis oocytes assessed as increase in GABA-induced chloride channel current by two-electrode voltage clamp method relative to control; format: cell-based
T4 sequence (P14867 whole entry): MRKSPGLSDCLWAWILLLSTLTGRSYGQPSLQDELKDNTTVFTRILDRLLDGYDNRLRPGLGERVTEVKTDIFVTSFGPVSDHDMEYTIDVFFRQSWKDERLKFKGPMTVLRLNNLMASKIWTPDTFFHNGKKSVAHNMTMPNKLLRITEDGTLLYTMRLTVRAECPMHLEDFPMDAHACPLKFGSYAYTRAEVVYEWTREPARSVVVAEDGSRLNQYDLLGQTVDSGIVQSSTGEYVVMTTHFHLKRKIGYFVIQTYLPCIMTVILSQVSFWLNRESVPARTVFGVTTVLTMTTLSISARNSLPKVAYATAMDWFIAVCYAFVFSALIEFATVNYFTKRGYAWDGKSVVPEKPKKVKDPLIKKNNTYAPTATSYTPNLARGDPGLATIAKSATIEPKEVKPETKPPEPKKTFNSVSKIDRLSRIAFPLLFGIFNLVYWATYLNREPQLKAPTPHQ
T4 sequence (P47870 whole entry): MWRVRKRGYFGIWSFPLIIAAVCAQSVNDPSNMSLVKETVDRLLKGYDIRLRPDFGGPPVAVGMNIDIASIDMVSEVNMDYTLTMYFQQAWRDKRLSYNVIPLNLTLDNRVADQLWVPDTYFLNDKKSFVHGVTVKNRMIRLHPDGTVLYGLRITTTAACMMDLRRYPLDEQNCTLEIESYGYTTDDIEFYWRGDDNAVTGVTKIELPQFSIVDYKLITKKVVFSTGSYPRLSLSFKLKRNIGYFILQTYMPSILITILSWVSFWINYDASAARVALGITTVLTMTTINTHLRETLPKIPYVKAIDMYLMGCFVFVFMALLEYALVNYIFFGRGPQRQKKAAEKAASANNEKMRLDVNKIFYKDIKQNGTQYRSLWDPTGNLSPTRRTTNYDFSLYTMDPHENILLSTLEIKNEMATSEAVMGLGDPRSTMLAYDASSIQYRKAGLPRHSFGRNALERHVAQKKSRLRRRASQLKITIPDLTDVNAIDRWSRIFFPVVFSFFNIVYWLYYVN
T4 sequence (P18507 whole entry): T3 sequence (P18507 whole entry)

[16] = molecular target: T1, GABA-A receptor; alpha-1/beta-2/gamma-2 (Homo sapiens); experiment: Positive allosteric modulation of human GABA-A alpha1beta2gamma2S receptor expressed in Xenopus laevis oocytes assessed as increase in GABA-induced chloride channel current by two-electrode voltage clamp method; format: cell-based
[17] = molecular target: GABA-A receptor; anion channel; experiment: Displacement of [35S]TBPS from Sprague-Dawley rat brain cortical membrane GABAA receptor incubated for 90 mins by scintillation counting method
[18] = Inhibition of BZD receptor (unknown origin); design: species or system Homo sapiens
[19] = Binding affinity to human GABA-A alpha4beta3delta receptor expressed in Xenopus laevis oocytes; format: cell-based
Homo sapiens [20] = species: Homo sapiens; experiment: Partial agonist activity at human GABA-A alpha4beta3delta receptor expressed in Xenopus laevis oocytes assessed as maximal GABA response by electrophysiology method relative to GABA; format: cell-based
Homo sapiens [21] = species: Homo sapiens; experiment: Selectivity ratio, ratio of EC50 for human GABA-A alpha4beta1delta receptor expressed in Xenopus laevis oocytes to EC50 for human GABA-A alpha4beta2delta receptor expressed in Xenopus laevis oocytes; format: cell-based
[22] = Binding affinity to human GABA-A alpha4beta2delta receptor expressed in Xenopus laevis oocytes; format: cell-based
Homo sapiens [23] = species: Homo sapiens; experiment: Selectivity ratio, ratio of EC50 for human GABA-A alpha4beta1delta receptor expressed in Xenopus laevis oocytes to EC50 for human GABA-A alpha4beta3delta receptor expressed in Xenopus laevis oocytes; format: cell-based
[24] = molecular target: Gamma-aminobutyric acid receptor subunit alpha-4/beta-1/delta (Homo sapiens) (UniProt P48169+O14764+P18505); experiment: Partial agonist activity at human GABA-A alpha4beta1delta receptor expressed in Xenopus laevis oocytes assessed as maximal GABA response by electrophysiology method relative to GABA; format: cell-based
Homo sapiens [25] = species: Homo sapiens; experiment: Agonist activity at human GABA-A alpha4beta2delta receptor expressed in Xenopus laevis oocytes assessed as maximal GABA response by electrophysiology method relative to GABA; format: cell-based
Xenopus laevis = experiment: Anaesthetic activity in Xenopus laevis tadpoles assessed as dose causing loss of righting reflex measured every 10 mins up to 120 mins; format: functional, organism-based
[26] = molecular target: T1, GABA-A receptor; alpha-1/beta-2/gamma-2 (Homo sapiens); experiment: Positive allosteric modulation of human recombinant GABA-A alpha1beta2gamma2L receptor expressed in Xenopus laevis oocytes assessed as maximal current response by two-electrode voltage clamp method relative to control; format: cell-based
[27] = molecular target: T4, GABA-A receptor; alpha-1/beta-2/gamma-2; experiment: Positive allosteric modulation of human recombinant GABA-A alpha1beta2gamma2L receptor expressed in Xenopus laevis oocytes by two-electrode voltage clamp method; format: cell-based

CC1(C)O[C@@H]1COc1c2occc2cc2ccc(=O)oc12
Activity [1]: > 20%

CCOC(=O)c1cnc2ccc(C(F)(F)F)cc2c1O
Ki [2]: 122 nM

O=C(Nc1c(-c2cccs2)nc2c(Br)cc(Br)cn12)c1ccc(Cl)cc1
Activity (Homo sapiens [3]): 306%
Activity [4]: 407%
Activity (Homo sapiens [5]): 975%

Cc1cc(-c2nnc3c4ccccc4c(OCc4cn(C)nn4)nn23)no1
Efficacy [6]: -29%

c1ccc(COc2nn3c(-c4ccccc4)nnc3c3ccccc23)cc1
Ki [7]: 16 nM

CC(C)[C@H]1CC[C@@H](C)C[C@@H]1O
Activity [8]: 226%

Cc1cc(-c2nncc3c(C(C)(C)C)c(OCc4ncnn4C)nn23)no1
Efficacy [9]: -55%
Ki [10]: 3 nM

COc1c2ccoc2c(OCC=C(C)C)c2oc(=O)ccc12
Activity [1]: > 20%

OC1CCCCC1
Activity [8]: 30.1%

O=C(Nc1c(-c2cccs2)nc2ccccn12)c1ccc(Cl)cc1
Activity (Homo sapiens [11]): 126%

CCCCCc1nsc2[nH]c3ccc(C)cc3c(=O)c12
Ki [12]: 13 nM

CC(C)=CCOc1c2ccoc2cc2oc(=O)ccc12
Activity [1]: > 20%

O=C1C[C@@H](c2ccc(O)cc2)Oc2cc(O)c(-c3c(O)cc(O)c4c(=O)cc(-c5ccc(O)cc5)oc34)c(O)c21
Ki [13]: 45 nM

CC1=CCC(C(C)(C)O)CC1 (stereo not drawn)
Activity [8]: 91.2%

c1ccc(-c2nnc3c4c(c(OCc5ccccn5)nn23)C2CCC4CC2)cc1
bioavailability [14]: 33%
Ki [7]: 26 nM

COc1ccc2ccc(=O)oc2c1CC=C(C)C [OSTHOLE]
EC50 [15]: 14000 nM
Activity [1]: > 20%
Activity [16]: 116%

c1ccc(-c2nnc3c4ccccc4c(OCc4ccccn4)nn23)cc1
Ki [7]: 1.7 nM

O=C1C[C@@H](c2ccc(O)cc2)Oc2c1c(O)cc(O)c2-c1c(O)cc(O)c2c(=O)cc(-c3ccc(O)cc3)oc12
Ki [13]: 280 nM

CCNC1=Nc2ccc(Cl)cc2C(C)(c2ccccc2)O1 (stereo not drawn) [ETIFOXINE]
IC50 [17]: 6700 nM

CC1(C)O[C@H]1COc1c2ccoc2cc2oc(=O)ccc12 [OXYPEUCEDANIN]
EC50 [15]: 25000 nM
Activity [1]: > 20%
Activity [16]: 547%

O=c1c2c[nH]c3c(c-2nn1-c1ccc(Cl)cc1)CCCC3
IC50 [18]: 1 nM

COc1ccccc1-c1oc2ccc(C)cc2c(=O)c1O
EC50 [19]: 2500 nM
Imax (Homo sapiens [20]): 105%
Ratio EC50 (Homo sapiens [21]): 10
EC50 [22]: 1400 nM
Ratio EC50 (Homo sapiens [23]): 10
Imax [24]: 61%
Imax (Homo sapiens [25]): 105%

CC(C)C1CCCC(C(C)C)C1O (stereo not drawn)
EC50 (Xenopus laevis): 14000 nM

CCCc1cc2c(=O)c(-c3ccc4c(c3)OCO4)c(CC)oc2cc1OC(=O)CC
Emax [26]: 1080%
EC50 [27]: 9300 nM

CC1CCCC(C)C1O (stereo not drawn)
EC50 (Xenopus laevis): 13100 nM

CCCC(=O)Nc1nsc2[nH]c3ccc(C)cc3c(=O)c12
Ki [12]: 2.8 nM

CC(C)=CCOc1c2occc2cc2ccc(=O)oc12
Activity [1]: > 20%

C=C(C)[C@H]1CC[C@H](C)C[C@@H]1O
Activity [8]: 280%
